The OligoGym collection
HELM strings list units from the 5' end as sugar, base in round brackets, then linkage (d deoxyribose, r ribose, m 2'-O-methyl, p phosphodiester). Strings are as the collection lists them; they lack the last nucleoside at the 3' end of the tested compound. [moe] = 2'-O-(2-methoxyethyl) (MOE); [sp] = phosphorothioate linkage; [m5C] = 5-methylcytosine

Target: UBE3A-ATS
Experiment: mouse, dose not given
Details: ASO

Substance | 3 h FOB score [score 0-7]
RNA1{[moe]([m5C])[sp].[moe](A)p.[moe](T)p.[moe](A)p.[moe]([m5C])p.[moe]([m5C])[sp].d([m5C])[sp].d(A)[sp].d(G)[sp].d(G)[sp].d(G)[sp].d(T)[sp].d(A)[sp].d(G)[sp].[moe](G)p.[moe](A)[sp].[moe](T)}$$$$ (last 3' nucleoside missing) | 2
RNA1{[moe]([m5C])[sp].[moe](A)p.[moe](T)p.[moe](G)p.[moe](T)p.d(G)[sp].d(G)[sp].d(G)[sp].d([m5C])[sp].d([m5C])[sp].d(T)[sp].d([m5C])[sp].d(T)[sp].d(A)[sp].d(T)[sp].[moe](T)p.[moe](A)p.[moe](A)[sp].[moe](G)}$$$$ (last 3' nucleoside missing) | 4
RNA1{[moe]([m5C])[sp].[moe](A)p.[moe](T)p.[moe](T)p.[moe](A)p.d(T)[sp].d(T)[sp].d([m5C])[sp].d(A)[sp].d(A)[sp].d(T)[sp].d(T)[sp].d(A)[sp].d(A)[sp].d(G)[sp].[moe](G)p.[moe](G)p.[moe](T)[sp].[moe](G)}$$$$ (last 3' nucleoside missing) | 4
RNA1{[moe]([m5C])[sp].[moe](A)p.[moe](T)p.[moe](T)p.[moe](A)p.d(T)[sp].d(T)[sp].d([m5C])[sp].d(T)[sp].d([m5C])[sp].d(T)[sp].d(A)[sp].d(G)[sp].d(T)[sp].d(G)[sp].[moe]([m5C])p.[moe]([m5C])p.[moe](T)[sp].[moe](A)}$$$$ (last 3' nucleoside missing) | 4
RNA1{[moe]([m5C])[sp].[moe](A)p.[moe](T)p.[moe](T)p.[moe](G)p.d(G)[sp].d([m5C])[sp].d(T)[sp].d(T)[sp].d([m5C])[sp].d(A)[sp].d(T)[sp].d(A)[sp].d(T)[sp].d(T)[sp].[moe](T)p.[moe]([m5C])p.[moe](T)[sp].[moe]([m5C])}$$$$ (last 3' nucleoside missing) | 0
RNA1{[moe]([m5C])[sp].[moe](A)p.[moe](T)p.[moe]([m5C])p.[moe](A)p.d(T)[sp].d(G)[sp].d(A)[sp].d(T)[sp].d([m5C])[sp].d(T)[sp].d(T)[sp].d(G)[sp].d(G)[sp].d(T)[sp].[moe](A)p.[moe](A)p.[moe](G)[sp].[moe](G)}$$$$ (last 3' nucleoside missing) | 3
RNA1{[moe]([m5C])[sp].[moe](A)p.[moe](T)p.[moe]([m5C])p.[moe](T)p.d([m5C])[sp].d(G)[sp].d(G)[sp].d(G)[sp].d(T)[sp].d(A)[sp].d(T)[sp].d(A)[sp].d(T)[sp].d(A)[sp].[moe](A)p.[moe](A)p.[moe](T)[sp].[moe](T)}$$$$ (last 3' nucleoside missing) | 2
RNA1{[moe]([m5C])[sp].[moe](A)p.[moe]([m5C])p.[moe](A)p.[moe](T)p.d(T)[sp].d(A)[sp].d([m5C])[sp].d([m5C])[sp].d([m5C])[sp].d(A)[sp].d(T)[sp].d([m5C])[sp].d([m5C])[sp].d(G)[sp].[moe](T)p.[moe](T)p.[moe]([m5C])[sp].[moe](T)}$$$$ (last 3' nucleoside missing) | 0
RNA1{[moe]([m5C])[sp].[moe](A)p.[moe]([m5C])p.[moe](T)p.[moe](G)p.d(A)[sp].d(G)[sp].d(T)[sp].d(T)[sp].d(T)[sp].d(T)[sp].d(T)[sp].d(G)[sp].d(T)[sp].d(A)[sp].[moe](G)p.[moe](T)p.[moe](T)[sp].[moe]([m5C])}$$$$ (last 3' nucleoside missing) | 4
RNA1{[moe]([m5C])[sp].[moe](A)p.[moe]([m5C])p.[moe](T)p.[moe]([m5C])p.d(A)[sp].d(T)[sp].d(T)[sp].d(T)[sp].d(T)[sp].d(G)[sp].d(T)[sp].d(T)[sp].d([m5C])[sp].d(A)[sp].[moe](G)p.[moe]([m5C])p.[moe](T)[sp].[moe](T)}$$$$ (last 3' nucleoside missing) | 3
RNA1{[moe]([m5C])[sp].[moe](A)p.[moe]([m5C])p.[moe](T)p.[moe]([m5C])p.d(T)[sp].d(A)[sp].d(T)[sp].d(A)[sp].d(G)[sp].d(G)[sp].d(T)[sp].d(T)[sp].d([m5C])[sp].d(A)[sp].[moe](A)p.[moe](G)p.[moe]([m5C])[sp].[moe](A)}$$$$ (last 3' nucleoside missing) | 4
RNA1{[moe]([m5C])[sp].[moe](A)p.[moe]([m5C])p.[moe]([m5C])p.[moe](T)p.d(A)[sp].d(G)[sp].d(G)[sp].d([m5C])[sp].d(T)[sp].d(G)[sp].d(G)[sp].d(G)[sp].d([m5C])[sp].d([m5C])[sp].[moe](T)p.[moe]([m5C])p.[moe](A)[sp].[moe](G)}$$$$ (last 3' nucleoside missing) | 3.5
RNA1{[moe]([m5C])[sp].[moe](G)p.[moe](G)p.[moe](A)p.[moe]([m5C])p.d(A)[sp].d(G)[sp].d(T)[sp].d(G)[sp].d(T)[sp].d(T)[sp].d(G)[sp].d([m5C])[sp].d(T)[sp].d(G)[sp].[moe](T)p.[moe](T)p.[moe](A)[sp].[moe](G)}$$$$ (last 3' nucleoside missing) | 6
RNA1{[moe]([m5C])[sp].[moe](G)p.[moe](G)p.[moe](G)p.[moe]([m5C])p.d(T)[sp].d(A)[sp].d(T)[sp].d(G)[sp].d(T)[sp].d(G)[sp].d(A)[sp].d(G)[sp].d(A)[sp].d(T)[sp].[moe](A)p.[moe](A)p.[moe](T)[sp].[moe](T)}$$$$ (last 3' nucleoside missing) | 4
RNA1{[moe]([m5C])[sp].[moe](G)p.[moe](T)p.[moe](A)p.[moe](T)p.d(T)[sp].d(G)[sp].d(G)[sp].d(A)[sp].d([m5C])[sp].d([m5C])[sp].d(T)[sp].d(T)[sp].d(T)[sp].d([m5C])[sp].[moe](A)p.[moe](A)p.[moe](T)[sp].[moe](G)}$$$$ (last 3' nucleoside missing) | 3.5
RNA1{[moe]([m5C])[sp].[moe](G)p.[moe](T)p.[moe](G)[sp].d(A)[sp].d(G)[sp].d([m5C])[sp].d(T)[sp].d(A)[sp].d(T)[sp].d([m5C])[sp].d(T)[sp].[moe](G)p.[moe](T)p.[moe](A)p.[moe]([m5C])[sp].[moe](A)}$$$$ (last 3' nucleoside missing) | 1
RNA1{[moe]([m5C])[sp].[moe](G)p.[moe](T)p.[moe](G)p.[moe](A)[sp].d(G)[sp].d([m5C])[sp].d(T)[sp].d(A)[sp].d(T)[sp].d([m5C])[sp].d(T)[sp].d(G)[sp].[moe](T)p.[moe](A)p.[moe]([m5C])[sp].[moe](A)}$$$$ (last 3' nucleoside missing) | 1.3
RNA1{[moe]([m5C])[sp].[moe](G)p.[moe](T)p.[moe](G)p.[moe](A)p.[moe](G)[sp].d([m5C])[sp].d(T)[sp].d(A)[sp].d(T)[sp].d([m5C])[sp].d(T)[sp].d(G)[sp].d(T)[sp].[moe](A)p.[moe]([m5C])[sp].[moe](A)}$$$$ (last 3' nucleoside missing) | 2
RNA1{[moe]([m5C])[sp].[moe](G)p.[moe](T)p.[moe](G)p.[moe](A)p.[moe](G)p.d([m5C])[sp].d(T)[sp].d(A)[sp].d(T)[sp].d([m5C])[sp].d(T)[sp].d(G)[sp].d(T)[sp].d(A)[sp].d([m5C])[sp].[moe](A)p.[moe](A)[sp].[moe](A)}$$$$ (last 3' nucleoside missing) | 1
RNA1{[moe]([m5C])[sp].[moe](G)p.[moe](T)p.[moe](G)p.[moe](A)p.d(G)[sp].d([m5C])[sp].d(T)[sp].d(A)[sp].d(T)[sp].d([m5C])[sp].d(T)[sp].d(G)[sp].d(T)[sp].d(A)[sp].[moe]([m5C])p.[moe](A)p.[moe](A)[sp].[moe](A)}$$$$ (last 3' nucleoside missing) | 3.2
RNA1{[moe]([m5C])[sp].[moe](G)p.[moe](T)p.[moe](G)p.d(A)[sp].d(G)[sp].d([m5C])[sp].d(T)[sp].d(A)[sp].d(T)[sp].d([m5C])[sp].d(T)[sp].d(G)[sp].d(T)[sp].[moe](A)p.[moe]([m5C])p.[moe](A)p.[moe](A)[sp].[moe](A)}$$$$ (last 3' nucleoside missing) | 4
RNA1{[moe]([m5C])[sp].[moe](G)p.[moe](T)p.[moe](T)p.[moe](A)p.d(T)[sp].d(T)[sp].d([m5C])[sp].d(A)[sp].d(G)[sp].d(T)[sp].d([m5C])[sp].d(T)[sp].d([m5C])[sp].d(A)[sp].[moe](G)p.[moe](G)p.[moe](G)[sp].[moe](A)}$$$$ (last 3' nucleoside missing) | 4.5
RNA1{[moe]([m5C])[sp].[moe](G)p.[moe](T)p.[moe]([m5C])p.[moe](T)p.d(T)[sp].d([m5C])[sp].d([m5C])[sp].d([m5C])[sp].d(G)[sp].d([m5C])[sp].d(A)[sp].d([m5C])[sp].d([m5C])[sp].d(A)[sp].[moe](T)p.[moe](G)p.[moe]([m5C])[sp].[moe](A)}$$$$ (last 3' nucleoside missing) | 2
RNA1{[moe]([m5C])[sp].[moe](G)p.[moe]([m5C])p.[moe](A)[sp].d(A)[sp].d(T)[sp].d(G)[sp].d(T)[sp].d(A)[sp].d(T)[sp].d([m5C])[sp].d(A)[sp].[moe](G)p.[moe](G)p.[moe]([m5C])p.[moe](A)[sp].[moe](A)}$$$$ (last 3' nucleoside missing) | 1
RNA1{[moe]([m5C])[sp].[moe](G)p.[moe]([m5C])p.[moe](A)p.[moe](A)[sp].d(T)[sp].d(G)[sp].d(T)[sp].d(A)[sp].d(T)[sp].d([m5C])[sp].d(A)[sp].d(G)[sp].[moe](G)p.[moe]([m5C])p.[moe](A)[sp].[moe](A)}$$$$ (last 3' nucleoside missing) | 2
RNA1{[moe]([m5C])[sp].[moe](G)p.[moe]([m5C])p.[moe](A)p.[moe](A)p.[moe](T)[sp].d(G)[sp].d(T)[sp].d(A)[sp].d(T)[sp].d([m5C])[sp].d(A)[sp].d(G)[sp].d(G)[sp].[moe]([m5C])p.[moe](A)[sp].[moe](A)}$$$$ (last 3' nucleoside missing) | 3
RNA1{[moe]([m5C])[sp].[moe](G)p.[moe]([m5C])p.[moe](A)p.[moe](A)p.d(T)[sp].d(G)[sp].d(T)[sp].d(A)[sp].d(T)[sp].d([m5C])[sp].d(A)[sp].d(G)[sp].d(G)[sp].d([m5C])[sp].[moe](A)p.[moe](A)p.[moe]([m5C])[sp].[moe](A)}$$$$ (last 3' nucleoside missing) | 4
